Measured values from PubChem BioAssay AID256 (DTP/NCI, 2004).
Several values for one entry are separate records, joined by “and”; a condition that tells them apart may be missing. Identical values can stand only once. Inconclusive results and toxic doses are left out. Rule for the calls: active = survival T/C of 150% or more; inactive = T/C below 125% in these data.

Tested on: CD2F1 mice, L1210 leukemia ip, survival T/C
Assay: NCI In Vivo Anticancer Drug Screen. Data for tumor model L1210 Leukemia (intraperitoneal) in CD2F1 (CDF1) mice
Details: higher = longer survival
How it was run: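 Activity against a transplanted murine tumor was judged by comparing the compound group with a vehicle group. The outcome in the treated animals was divided by that in the controls.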

[1] = endpoint: mean survival time, dose: 50.0 mg/kg/injection, schedule: Q01DX009 (ip), vehicle: saline with Tween-80
[2] = endpoint: mean survival time, dose: 100.0 mg/kg/injection, schedule: Q01DX001 (ip), vehicle: saline with Tween-80
[3] = endpoint: mean survival time, dose: 100.0 mg/kg/injection, schedule: Q01DX009 (ip), vehicle: saline with Tween-80
[4] = endpoint: mean survival time, dose: 200.0 mg/kg/injection, schedule: Q01DX001 (ip), vehicle: saline with Tween-80
[5] = endpoint: mean survival time, dose: 150.0 mg/kg/injection, schedule: Q01DX009 (ip), vehicle: saline
[6] = endpoint: mean survival time, dose: 100.0 mg/kg/injection, schedule: Q04DX002 (ip), vehicle: saline with Tween-80
[7] = endpoint: mean survival time, dose: 200.0 mg/kg/injection, schedule: Q04DX002 (ip), vehicle: saline with Tween-80
[8] = endpoint: mean survival time, dose: 400.0 mg/kg/injection, schedule: Q04DX002 (ip), vehicle: saline with Tween-80
[9] = endpoint: mean survival time, dose: 50.0 mg/kg/injection, schedule: Q04DX002 (ip), vehicle: saline with Tween-80
[10] = endpoint: mean survival time, dose: 100.0 mg/kg/injection, schedule: Q04DX003 (ip), vehicle: saline with Tween-80
[11] = endpoint: mean survival time, dose: 200.0 mg/kg/injection, schedule: Q01DX009 (ip), vehicle: saline with Tween-80
[12] = endpoint: mean survival time, dose: 200.0 mg/kg/injection, schedule: Q04DX003 (ip), vehicle: saline with Tween-80
[13] = endpoint: mean survival time, dose: 400.0 mg/kg/injection, schedule: Q01DX009 (ip), vehicle: saline with Tween-80
[14] = endpoint: mean survival time, dose: 400.0 mg/kg/injection, schedule: Q04DX003 (ip), vehicle: saline with Tween-80
[15] = endpoint: mean survival time, dose: 100.0 mg/kg/injection, schedule: Q01DX001 (ip), vehicle: saline
[16] = endpoint: mean survival time, dose: 200.0 mg/kg/injection, schedule: Q01DX001 (ip), vehicle: saline
[17] = endpoint: mean survival time, dose: 400.0 mg/kg/injection, schedule: Q01DX001 (ip), vehicle: saline

Measured: T/C

O=[N+]([O-])c1ccc(CNc2ncnc3c2ncn3C2OC(CO)C(O)C2O)cc1 (configuration not stated)
inactive: endpoint: mean survival time, dose: 75.0 mg/kg/injection, schedule: Q01DX001 (ip), vehicle: other 106 % of control | endpoint: mean survival time, dose: 150.0 mg/kg/injection, schedule: Q01DX001 (ip), vehicle: other 112 % of control | endpoint: mean survival time, dose: 300.0 mg/kg/injection, schedule: Q01DX001 (ip), vehicle: other 100 % of control

C/C(=N/O)[c-]1[c-][c-][c-][c-]1.[Fe].[c-]1[c-][c-][cH-][c-]1
inactive: [1] 97 % of control | [2] 95 % of control | [3] 94 % of control | [4] 101 % of control

C#CCCCCCC#[C][Hg][C]#CCCCCCC#C.C#CCCCCCC#[C][Hg][C]#CCCCCCC#C
inactive: endpoint: mean survival time, dose: 75.0 mg/kg/injection, schedule: Q04DX003 (ip), vehicle: saline 91 % of control | [5] 91 % of control | endpoint: mean survival time, dose: 150.0 mg/kg/injection, schedule: Q04DX003 (ip), vehicle: saline 94 % of control | endpoint: mean survival time, dose: 300.0 mg/kg/injection, schedule: Q04DX003 (ip), vehicle: saline 94 % of control

Oc1ccccc1C=NCc1ccccc1.Oc1ccccc1C=NCc1ccccc1.[Cu]
inactive: [6] 100 % of control | [7] 96 % of control | [8] 100 % of control

O=C(O)C(=O)O.O=C(O)C(=O)O.O=C(O)C(=O)O.[Fe]
inactive: endpoint: mean survival time, dose: 25.0 mg/kg/injection, schedule: Q04DX002 (ip), vehicle: saline with Tween-80 91 % of control | [9] 91 % of control | [6] 87 % of control

CN=NNc1ccc(C(N)=O)cc1
inactive: endpoint: mean survival time, dose: 18.75 mg/kg/injection, schedule: Q01DX009 (ip), vehicle: saline 100 % of control | endpoint: mean survival time, dose: 37.5 mg/kg/injection, schedule: Q01DX009 (ip), vehicle: saline 109 % of control | endpoint: mean survival time, dose: 75.0 mg/kg/injection, schedule: Q01DX009 (ip), vehicle: saline 101 % of control | [5] 96 % of control | endpoint: mean survival time, dose: 300.0 mg/kg/injection, schedule: Q01DX009 (ip), vehicle: saline 100 % of control

CCC(=O)O[C@H]1CC[C@H]2[C@@H]3[C@@H](C)CC4=CC(=O)CC[C@]4(C)[C@H]3CC[C@]12C
inactive: [2] 91 % of control | [4] 94 % of control | endpoint: mean survival time, dose: 400.0 mg/kg/injection, schedule: Q01DX001 (ip), vehicle: saline with Tween-80 94 % of control

O=C(c1ccccc1)c1ccc(-c2ccccc2)c(=O)o1
inactive: [3] 95 % of control | [10] 100 % of control | [11] 95 % of control | [12] 98 % of control | [13] 92 % of control | [14] 102 % of control

CCCCCCCCCCCCCCCCCC(CCCCCCCC)CCCCCCCC
inactive: [15] 96 % of control | [16] 94 % of control | [17] 91 % of control

CCC(=O)OCC1OC(n2ccc(O)cc2=O)C(O)C1O (configuration not stated)
active: endpoint: median survival time, dose: 44.0 mg/kg/injection, schedule: Q01DX009 (ip), vehicle: saline + alcohol 178 % of control | endpoint: median survival time, dose: 67.0 mg/kg/injection, schedule: Q01DX009 (ip), vehicle: saline + alcohol 174 % of control | endpoint: median survival time, dose: 100.0 mg/kg/injection, schedule: Q01DX009 (ip), vehicle: saline + alcohol 174 % of control | endpoint: median survival time, dose: 150.0 mg/kg/injection, schedule: Q01DX009 (ip), vehicle: saline + alcohol 153 % of control

COc1ccc(NC(=O)CC(C)(C)C(=O)O)cc1
inactive: [10] 101 % of control | [12] 100 % of control | [14] 103 % of control

NC(=O)OCCc1c2ccccc2[n+]([O-])c2ccccc12
inactive: [9] 98 % of control | [6] 95 % of control | [7] 98 % of control | [8] 95 % of control

C/C=C/CNc1ccc(C)cc1
inactive: endpoint: mean survival time, dose: 66.0 mg/kg/injection, schedule: Q01DX009 (ip), vehicle: saline with Tween-80 98 % of control | [3] 100 % of control | [10] 103 % of control | endpoint: mean survival time, dose: 150.0 mg/kg/injection, schedule: Q01DX009 (ip), vehicle: saline with Tween-80 102 % of control

CSCCC(NC=O)C(=O)O (configuration not stated)
inactive: endpoint: mean survival time, dose: 12.5 mg/kg/injection, schedule: Q01DX001 (ip), vehicle: saline 98 % of control | endpoint: mean survival time, dose: 25.0 mg/kg/injection, schedule: Q01DX001 (ip), vehicle: saline 93 % of control | endpoint: mean survival time, dose: 50.0 mg/kg/injection, schedule: Q01DX001 (ip), vehicle: saline 106 % of control

O=C(c1ccc(-c2ccccc2)cc1)C1C(c2ccccc2)N1C1CCCCC1 (configuration not stated)
inactive: endpoint: mean survival time, dose: 12.5 mg/kg/injection, schedule: Q01DX009 (ip), vehicle: other 102 % of control and 96 % of control | endpoint: mean survival time, dose: 25.0 mg/kg/injection, schedule: Q01DX001 (ip), vehicle: water 96 % of control and 98 % of control | endpoint: mean survival time, dose: 25.0 mg/kg/injection, schedule: Q01DX009 (ip), vehicle: other 96 % of control and 97 % of control | endpoint: mean survival time, dose: 50.0 mg/kg/injection, schedule: Q01DX001 (ip), vehicle: water 88 % of control and 90 % of control | endpoint: mean survival time, dose: 50.0 mg/kg/injection, schedule: Q01DX009 (ip), vehicle: other 102 % of control and 88 % of control | endpoint: mean survival time, dose: 100.0 mg/kg/injection, schedule: Q01DX001 (ip), vehicle: water 95 % of control and 101 % of control | endpoint: mean survival time, dose: 100.0 mg/kg/injection, schedule: Q01DX009 (ip), vehicle: other 86 % of control and 97 % of control | endpoint: mean survival time, dose: 200.0 mg/kg/injection, schedule: Q01DX001 (ip), vehicle: water 90 % of control and 92 % of control | endpoint: mean survival time, dose: 200.0 mg/kg/injection, schedule: Q01DX009 (ip), vehicle: other 94 % of control | endpoint: mean survival time, dose: 400.0 mg/kg/injection, schedule: Q01DX001 (ip), vehicle: water 92 % of control

COc1c(C)c2c(c3c1CC(=O)O3)C(=O)OC2
inactive: [6] 108 % of control | [7] 112 % of control | [8] 112 % of control

CCN(CC)C(=O)c1ccncc1
inactive: endpoint: mean survival time, dose: 100.0 mg/kg/injection, schedule: Q04DX003 (ip), vehicle: saline 101 % of control | endpoint: mean survival time, dose: 200.0 mg/kg/injection, schedule: Q04DX003 (ip), vehicle: saline 104 % of control | endpoint: mean survival time, dose: 400.0 mg/kg/injection, schedule: Q04DX003 (ip), vehicle: saline 101 % of control

NNc1nc2c(=O)[nH]cnc2n1C1OC(CO)C(O)C1O (configuration not stated)
inactive: endpoint: mean survival time, dose: 12.5 mg/kg/injection, schedule: Q01DX005 (ip), vehicle: distilled water + Tween-80 98 % of control | endpoint: mean survival time, dose: 25.0 mg/kg/injection, schedule: Q01DX005 (ip), vehicle: distilled water + Tween-80 98 % of control | endpoint: mean survival time, dose: 50.0 mg/kg/injection, schedule: Q01DX005 (ip), vehicle: distilled water + Tween-80 100 % of control | endpoint: mean survival time, dose: 100.0 mg/kg/injection, schedule: Q01DX005 (ip), vehicle: distilled water + Tween-80 107 % of control | endpoint: mean survival time, dose: 200.0 mg/kg/injection, schedule: Q01DX005 (ip), vehicle: distilled water + Tween-80 104 % of control

Cc1cc(C)c2[nH]c(=O)c(C)c(C)c2c1
inactive: [15] 96 % of control | [16] 96 % of control | [17] 93 % of control

CC(C)(C)CC(C)(C)c1ccc(OCCOc2ccc(C(=O)NCCNC(=O)c3ccc4ccccc4c3O)cc2N)cc1
inactive: [11] 89 % of control | [13] 89 % of control

N#CC(Cl)(C#N)c1ccc(C(Cl)(C#N)C#N)cc1
inactive: endpoint: mean survival time, dose: 25.0 mg/kg/injection, schedule: Q01DX009 (ip), vehicle: saline with Tween-80 101 % of control | [1] 104 % of control | [3] 98 % of control and 101 % of control

CC(=O)c1ccc(N=Nc2c(N)nc(N)nc2N)cc1
inactive: [3] 92 % of control | [10] 89 % of control | [11] 97 % of control | [12] 87 % of control | [13] 98 % of control | [14] 89 % of control

COc1nc(NC2OC(CO)C(O)C(O)C2O)c(Br)c(=O)n1C (configuration not stated)
inactive: endpoint: median survival time, dose: 12.5 mg/kg/injection, schedule: Q01DX005 (ip), vehicle: saline with Tween-80 101 % of control | endpoint: median survival time, dose: 25.0 mg/kg/injection, schedule: Q01DX005 (ip), vehicle: saline with Tween-80 101 % of control | endpoint: median survival time, dose: 50.0 mg/kg/injection, schedule: Q01DX005 (ip), vehicle: saline with Tween-80 100 % of control | endpoint: median survival time, dose: 100.0 mg/kg/injection, schedule: Q01DX005 (ip), vehicle: saline with Tween-80 102 % of control | endpoint: median survival time, dose: 200.0 mg/kg/injection, schedule: Q01DX005 (ip), vehicle: saline with Tween-80 96 % of control
